Values quoted from earlier work, collected in patent US20100021530A1, “ENHANCED TRANS-KERATIN DRUG DELIVERY” (Innovation Biomedical Devices, Inc., priority 2008, published 2010).

Test system: Tinea unguium or onychomycosis (nail fungus)
Details: topical, after a year of treatment, at best

SMILES: Cc1cc(C2CCCCC2)n(O)c(=O)c1 [ciclopirox]
- cure rate: around 20%
